Tests used:
[1] = molecular target: T1, Bovine carbonic anhydrase, isozyme III (Bos taurus, UniProt Q3SZX4); assay: Carbonic anhydrase-III inhibition assay by size exclusion Hummel–Dreyer method (HDM) chromatography; type: binding; conditions: HDM size exclusion HPLC; 0.24 mM analyte in mobile phase; 10% acetonitrile, phosphate buffer pH 6.5; 37 °C; CA-III injected at three concentrations
T1 construct: purchased Biovar Ltd, Armenia
T1 sequence (Q3SZX4 1-260): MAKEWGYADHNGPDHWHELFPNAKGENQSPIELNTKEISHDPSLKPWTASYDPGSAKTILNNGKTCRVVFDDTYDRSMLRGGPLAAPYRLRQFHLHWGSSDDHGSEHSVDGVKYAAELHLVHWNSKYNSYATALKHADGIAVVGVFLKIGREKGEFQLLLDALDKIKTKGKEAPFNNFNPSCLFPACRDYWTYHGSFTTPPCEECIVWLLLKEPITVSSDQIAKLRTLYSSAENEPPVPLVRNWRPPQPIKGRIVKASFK
Experimental: HPLC screening was conducted on the LC-2010A HT HPLC system, coupled with column temperature controller, degasser, auto sampler, and isocratic elution system, LC-solution software (to calculate peak area), Shimadzu Corporation, Kyoto, Japan. Back pressure was maintained around 6 MPA. A Phenomenex BioSep-SEC s2000, 300 × 7.8 mm column was used for size exclusion chromatography.
Bovine carbonic anhydrase, isozyme III (Biovar Ltd, Armenia) was stored at 0 °C in refrigerator until use. Enzyme was left for few minutes at room temperature before analysis. HPLC-grade methanol and acetonitrile (Fisher Scientific, Loughborough, UK) were used without further purification. NaH2PO4.H2O (Gainland, Deeside, UK), HCl (Carlo Erba, Italy), NaOH (Lonver, UK), and deionised water were used for the preparation of mobile phase. All the required chemicals for the synthesis of target compounds (12–16b) were procured either from Fisher Scientific, Loughborough, UK or Sigma-Aldrich, St. Louis, MO.
Each target compounds (12–16b) was dissolved in a mixture of acetonitrile: phosphate buffer, pH 6.5 (1:9 v/v) to obtain a final concentration of 0.24 mM. Subsequently, filtration and degassing by sonication were conducted for the mobile phase. Three different enzyme (CA-III) concentrations of […] were prepared from the stock solution (containing 0.865 mg in 10 mL of distilled water) by subsequent dilution method and injected separately in each run in the chromatographic system. All samples were used in duplicate. Vanillic acid was used as a positive control, and toluene was used as a negative control.
The mobile phase used for analysis was chosen according to the optimised conditions obtained, where 10% of organic modifier, 30 mM phosphate buffer (pH = 6.5) and 37 °C temperature was used. Column was pre-equilibrated with the mobile phase for 50 min. The flow rate of mobile phase was maintained at 1 mL/min during the run time. A wavelength of 230 nm (λmax) was selected for the analysis of all the tested compounds.
CA-III inhibitory activities of all the 17 target compounds (12–16b) as shown in Table 1 were carried out by using size exclusion HDM chromatography. The HDM chromatography was preferred over colorimetric assay of CA inhibitors, due to the susceptibility of the colorimetric methods to the intrinsic acidic or alkaline properties of analytes (inhibitors), including the lower catalytic activity of CA-III in CO2 hydration. Moreover, in HDM chromatographic method, the dilution effect of the mobile phase not only provides comparatively larger space for interaction between the macromolecule (CA-III) and analytes, but also lowers the probability of self-aggregation of macromolecules[35–37]^,[41]. The HDM was further optimised prior to use, where mobile phase was buffered to maintain the pH = 6.5 to mimic the physiological condition and to minimise the intrinsic properties of analytes. Moreover, acetonitrile (10%) was used to facilitate the elution of analytes (inhibitors) from the hydrophobic column as well as to prevent the adhesion of macromolecule to the stationary phase of the column. A constant optimised temperature of 37 °C was maintained throughout the chromatographic run, as the increase in temperature could not only influence the protein-ligand interaction but also affect the longevity of the column.
The chromatographic analysis by HDM is basically based on the measurement of the intensity of the formation of vacancy (negative) peak due to the subtraction of CA-III bound portion of analytes from the mobile phase. This method is also independent of the enzyme catalytic activity, thereby considered as more sensitive method for the estimation of inhibitory activities of analytes as compared to the colorimetric assay[35–37]^,[41]. Thus, weak inhibitors created weak vacancy peaks independent of the enzyme concentrations. […]

Row | SMILES | Ki [1] [µM] | melting point [°C]
1 | Nc1nc(C(=O)O)c(-c2ccc(Cl)c([N+](=O)[O-])c2)s1 [Compound 15a, 2-Amino-5-(4-chloro-3-nitrophenyl)thiazole-4-carboxylic acid] | 81.2 | 163
2 | COC(=O)c1nc(N)sc1-c1ccc(Cl)c([N+](=O)[O-])c1 [Compound 15] | > 500 | –
3 | COC(=O)c1nc(NC(=O)c2ccc(OC)cc2)sc1-c1ccc(S(C)(=O)=O)cc1 [Compound 14b, Methyl-2-(4-methoxybenzamido)-5-(4-(methylsulfonyl)phenyl)thiazole-4-carboxylate] | > 500 | 239
4 | Cc1ccc(-c2sc(N)nc2C(=O)O)cc1 [Compound 13a, 2-Amino-5-(p-tolyl)thiazole-4-carboxylic acid] | 18.9 | 236
5 | Nc1nc(C(=O)O)c(-c2ccccc2)s1 [Compound 12a, 2-amino-5-phenylthiazole-4-carboxylic acid] | 0.5 | –
6 | COC(=O)c1nc(N)sc1-c1ccccc1 [Compound 12] | > 500 | –
7 | COc1cc(C(=O)O)ccc1O [Vanillic acid, reference compound] | 6.8 | –
8 | COC(=O)c1nc(NC(=O)Nc2ccccc2)sc1Cc1ccccc1 [Compound 16b, Methyl-5-benzyl-2-(3-phenylureido)thiazole-4-carboxylate] | > 500 | 226
9 | COC(=O)c1nc(N)sc1Cc1ccccc1 [Compound 16] | > 500 | –
10 | COC(=O)c1nc(N)sc1-c1ccc(C)cc1 [Compound 13, Methyl-2-amino-5-(p-tolyl)thiazole-4-carboxylate] | > 500 | 201
11 | Nc1nc(C(=O)O)c(Cc2ccccc2)s1 [Compound 16a] | > 500 | –
12 | Cc1ccc(-c2sc(NC(=O)Nc3ccccc3)nc2C(=O)O)cc1 [Compound 13c, 2-(3-Phenylureido)-5-(p-tolyl)thiazole-4-carboxylic acid] | 174 | 226
13 | COC(=O)c1nc(NC(=O)Nc2ccccc2)sc1-c1ccc(C)cc1 [Compound 13b, Methyl-2-(3-phenylureido)-5-(p-tolyl)thiazole-4-carboxylate] | > 500 | 147
14 | CS(=O)(=O)c1ccc(-c2sc(N)nc2C(=O)O)cc1 [Compound 14a, 2-Amino-5-(4-(methylsulfonyl)phenyl)thiazole-4-carboxylic acid] | 86.6 | 238
15 | COC(=O)c1nc(NC(=O)c2ccc([N+](=O)[O-])cc2)sc1-c1ccccc1 [Compound 12b, Methyl-2-(4-nitrobenzamido)-5-substituted-thiazole-4-carboxylate] | > 500 | –
16 | COC(=O)c1nc(N)sc1-c1ccc(S(C)(=O)=O)cc1 [Compound 14, Methyl-2-amino-5-(4-(methylsulfonyl)phenyl)thiazole-4-carboxylate] | > 500 | 260
17 | COc1ccc(C(=O)Nc2nc(C(=O)O)c(-c3ccc(S(C)(=O)=O)cc3)s2)cc1 [Compound 14c, 2-(4-Methoxybenzamido)-5-(4-(methylsulfonyl)phenyl)thiazole-4-carboxylic acid] | 186 | 174
18 | COC(=O)c1nc(NC(=O)Nc2ccccc2)sc1-c1ccc(S(C)(=O)=O)cc1 [Compound 14d, Methyl 5-(4-(methylsulfonyl)phenyl)-2-(3-phenylureido)thiazole-4-carboxylate] | > 500 | 143

Reference: paper PMC7470151, “Synthesis and evaluation of 2,4,5-trisubstitutedthiazoles as carbonic anhydrase-III inhibitors” (Journal of Enzyme Inhibition and Medicinal Chemistry, 2020)
